One test addresses T1, human CD73 (Homo sapiens, UniProt P21589).
T1 construct: expressed in transfected cells
T1 sequence (P21589 27-549): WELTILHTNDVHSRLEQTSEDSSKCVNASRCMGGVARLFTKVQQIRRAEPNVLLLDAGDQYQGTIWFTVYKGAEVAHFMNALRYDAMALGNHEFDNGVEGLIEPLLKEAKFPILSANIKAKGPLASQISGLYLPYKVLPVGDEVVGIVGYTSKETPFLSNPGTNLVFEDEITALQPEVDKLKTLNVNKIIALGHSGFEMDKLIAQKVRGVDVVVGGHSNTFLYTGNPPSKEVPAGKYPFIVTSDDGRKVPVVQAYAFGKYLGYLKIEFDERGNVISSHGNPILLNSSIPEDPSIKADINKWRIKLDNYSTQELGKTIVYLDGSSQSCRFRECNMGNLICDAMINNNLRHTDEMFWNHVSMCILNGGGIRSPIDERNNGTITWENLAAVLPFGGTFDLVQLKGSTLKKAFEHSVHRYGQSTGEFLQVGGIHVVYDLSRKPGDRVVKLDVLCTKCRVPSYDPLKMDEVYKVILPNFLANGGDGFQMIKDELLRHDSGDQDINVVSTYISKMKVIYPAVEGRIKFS
The experiment in a line: Inhibitor activity against CD73 in cell based assay (CD73 expressing CHO-K1 cells). Conditions: CHO-K1 cells expressing human CD73, 150 μM AMP, 4 hours of incubation; read-out: CHO-K1 CELL VARIANT: CD73 IC50. Put shortly: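 Stably transfected CHO-K1 cells expressing human CD73 (1×10^4/well) incubated 4 h with compound (8-point 1:3 titration, top 10 μM final, 0.2% DMSO) and 150 μM AMP. Residual AMP in supernatant measured by CellTiter-Glo luminescence with 1 μM ATP after 30 min at room temperature; IC50 by nonlinear regression of percent inhibition vs high/low controls.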

The target of test [1] is T2, Human CD73 (amino acid residues 27-549) (Homo sapiens, UniProt P21589).
T2 construct: Human CD73 (amino acid residues 27-549); His tag (N); made in house; host or cells: E. coli
T2 sequence (P21589 27-549): T1 sequence (P21589 27-549)
The test can be described thus: CD73 enzymatic assay (luciferase-based indirect assay, CellTiter-Glo). Conditions: 0.4 nM CD73, 150 μM AMP, 1 hour at room temperature. The class given is biochemical. Put shortly:
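His-tagged human CD73 (27-549) from E. coli, 0.4 nM, with 150 μM AMP in 50 mM HEPES pH 7.4, 0.01% Tween 20; 1 h at room temperature. AMP remaining read by CellTiter-Glo 2.0 luminescence with 1 μM final ATP after 30 min. IC50 from nonlinear regression of % inhibition.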
For orientation: ATP-based viability assays read luminescence as a measure of living cells.

As usually defined, the IC50 is the concentration at which inhibition is half-maximal.

For the compound `CCCN1CC(NC(=O)O[C@@H]2CCN(c3cn[nH]c(=O)c3Cl)C2)CC1=O` (stereo partly drawn) [P-0209, (R)-1-(5-chloro-6-oxo-1,6-dihydropyridazin-4-yl)pyrrolidin-3-yl (5-oxo-1-propylpyrrolidin-3-yl)carbamate], the IC50 (at human CD73; in test [1]) was 0.001 to 10 µM each time.
On to `Cn1ncc(N2CC[C@@H](OC(=O)N[C@H]3CC[C@@H](C)CC3)C2)c(Cl)c1=O` [P-0210, (R)-1-(5-chloro-1-methyl-6-oxo-1,6-dihydropyridazin-4-yl)pyrrolidin-3-yl ((1s,4S)-4-methylcyclohexyl)carbamate], for which the IC50 (at human CD73; in test [1]) was 0.001 to 10 µM in each case.
`Cn1ncc(N2CC[C@@H](OC(=O)N[C@H]3CC[C@@H](NC(=O)c4ccccc4)CC3)C2)c(Cl)c1=O` [P-0211, (R)-1-(5-chloro-1-methyl-6-oxo-1,6-dihydropyridazin-4-yl)pyrrolidin-3-yl ((1s,4S)-4-benzamidocyclohexyl) carbamate]: the IC50 (at human CD73; in test [1]) was 0.001 to 10 µM throughout.
In the case of `O=C(NC1CC2(C1)CN(S(=O)(=O)c1ccc(F)cc1)C2)O[C@@H]1CCN(c2cn[nH]c(=O)c2Cl)C1` [P-0212, (R)-1-(5-chloro-6-oxo-1,6-dihydropyridazin-4-yl)pyrrolidin-3-yl (2-((4-fluorophenyl)sulfonyl)-2-azaspiro[3.3]heptan-6-yl)carbamate], the IC50 (on human CD73; in test [1]) was 0.001 to 10 µM throughout.
As to `O=CNC1CC2(C1)CC(NC(=O)O[C@@H]1CCN(c3cn[nH]c(=O)c3Cl)C1)C2` (stereo partly drawn) [P-0213, (R)-1-(5-chloro-6-oxo-1,6-dihydropyridazin-4-yl)pyrrolidin-3-yl (6-formamidospiro[3.3]heptan-2-yl)carbamate], the IC50 (at human CD73; in test [1]) was 0.001 to 10 µM in each case.
As for `O=C(Nc1ccc(F)cc1)NC1CC2(C1)CC(NC(=O)O[C@@H]1CCN(c3cn[nH]c(=O)c3Cl)C1)C2` (stereo partly drawn) [P-0214, (R)-1-(5-chloro-6-oxo-1,6-dihydropyridazin-4-yl)pyrrolidin-3-yl (6-(3-(4-fluorophenyl)ureido)spiro[3.3]heptan-2-yl)carbamate], the IC50 (at human CD73; in test [1]) was 0.001 to 10 µM in each case.
As to `CCC(CC)NC(=O)O[C@@H]1CCN(c2cn[nH]c(=O)c2Cl)C1` [P-0215, (R)-1-(5-chloro-6-oxo-1,6-dihydropyridazin-4-yl)pyrrolidin-3-yl pentan-3-ylcarbamate], the IC50 (at human CD73; in test [1]) was 0.001 to 10 µM throughout.
Turning to `Cn1ncc(N2CC[C@@H](OC(=O)N[C@H]3CC[C@H](NS(=O)(=O)c4ccc(F)cc4)CC3)C2)c(Cl)c1=O` [P-0216, (R)-1-(5-chloro-1-methyl-6-oxo-1,6-dihydropyridazin-4-yl)pyrrolidin-3-yl ((1r,4R)-4-((4-fluorophenyl)sulfonamido)cyclohexyl)carbamate], the IC50 (on human CD73; in test [1]) was 0.001 to 10 µM throughout.
As for `Cn1ncc(N2CC[C@@H](OC(=O)N[C@H]3CC[C@H](NC(=O)c4ccccc4)CC3)C2)c(Cl)c1=O` [P-0217, (R)-1-(5-chloro-1-methyl-6-oxo-1,6-dihydropyridazin-4-yl)pyrrolidin-3-yl ((1r,4R)-4-benzamidocyclohexyl) carbamate], the IC50 (on human CD73; in test [1]) was 0.001 to 10 µM in each case.
Regarding `Cn1ncc(N2CC[C@@H](OC(=O)N[C@H]3CC[C@H](NS(=O)(=O)NC4CCCC4)CC3)C2)c(Cl)c1=O` [P-0218, (R)-1-(5-chloro-1-methyl-6-oxo-1,6-dihydropyridazin-4-yl)pyrrolidin-3-yl ((1r,4R)-4-((N-cyclopentylsulfamoyl)amino)cyclohexyl)carbamate], the IC50 (at human CD73; in test [1]) was 0.001 to 10 µM each time.
As for `CC(C)(C)c1nnc(NC(=O)O[C@@H]2CCN(c3cn[nH]c(=O)c3Cl)C2)s1` [P-0219, (R)-1-(5-chloro-6-oxo-1,6-dihydropyridazin-4-yl)pyrrolidin-3-yl (5-(tert-butyl)-1,3,4-thiadiazol-2-yl)carbamate], the IC50 (at human CD73; in test [1]) was 10 to 100 µM throughout.
As to `Cc1cc(NC(=O)O[C@@H]2CCN(c3cn[nH]c(=O)c3Cl)C2)no1` [P-0220, (R)-1-(5-chloro-6-oxo-1,6-dihydropyridazin-4-yl)pyrrolidin-3-yl (5-methylisoxazol-3-yl)carbamate], the IC50 (on human CD73; in test [1]) was 0.001 to 10 µM in each case.
Regarding `Cc1nc(NC(=O)O[C@@H]2CCN(c3cn[nH]c(=O)c3Cl)C2)sc1C` [P-0221, (R)-1-(5-chloro-6-oxo-1,6-dihydropyridazin-4-yl)pyrrolidin-3-yl (4,5-dimethylthiazol-2-yl)carbamate], the IC50 (at human CD73; in test [1]) was 10 to 100 µM each time.
Take `Cn1cc(NC(=O)O[C@@H]2CCN(c3cn[nH]c(=O)c3Cl)C2)cn1` [P-0222, (R)-1-(5-chloro-6-oxo-1,6-dihydropyridazin-4-yl)pyrrolidin-3-yl (1-methyl-1H-pyrazol-4-yl)carbamate]: the results for the IC50 (on human CD73; in test [1]) were 10 to 100 µM and 0.001 to 10 µM, respectively.
On the same counts, the results for `O=C(NCc1cc(C2CC2)[nH]n1)O[C@@H]1CCN(c2cn[nH]c(=O)c2Cl)C1` [P-0223, (R)-1-(5-chloro-6-oxo-1,6-dihydropyridazin-4-yl)pyrrolidin-3-yl ((5-cyclopropyl-1H-pyrazol-3-yl)methyl)carbamate] are 10 to 100 µM and 10 to 100 µM.
On the same counts, the results for `O=C(Nc1cnn2cccnc12)O[C@@H]1CCN(c2cn[nH]c(=O)c2Cl)C1` [P-0224, (R)-1-(5-chloro-6-oxo-1,6-dihydropyridazin-4-yl)pyrrolidin-3-yl pyrazolo[1,5-a]pyrimidin-3-ylcarbamate] are 10 to 100 µM and 0.001 to 10 µM.
On the same counts, the results for `O=C(Nc1ncco1)O[C@@H]1CCN(c2cn[nH]c(=O)c2Cl)C1` [P-0225, (R)-1-(5-chloro-6-oxo-1,6-dihydropyridazin-4-yl)pyrrolidin-3-yl oxazol-2-ylcarbamate] are 10 to 100 µM and 0.001 to 10 µM.
For the compound `CCn1cc(S(=O)(=O)N[C@H]2CC[C@H](NC(=O)O[C@@H]3CCN(c4cnn(C)c(=O)c4Cl)C3)CC2)cn1` [P-0226, (R)-1-(5-chloro-1-methyl-6-oxo-1,6-dihydropyridazin-4-yl)pyrrolidin-3-yl ((1r,4R)-4-((1-ethyl-1H-pyrazole)-4-sulfonamido)cyclohexyl) carbamate], the IC50 (on human CD73; in test [1]) was 0.001 to 10 µM in each case.
As for `Cn1ncc(N2CC[C@@H](OC(=O)N[C@H]3CC[C@H](NS(=O)(=O)C4CC4)CC3)C2)c(Cl)c1=O` [P-0227, (R)-1-(5-chloro-1-methyl-6-oxo-1,6-dihydropyridazin-4-yl)pyrrolidin-3-yl ((1r,4R)-4-(cyclopropanesulfonamido)cyclohexyl)carbamate], the IC50 (on human CD73; in test [1]) was 0.001 to 10 µM in each case.
In the case of `Cn1ncc(N2CC[C@@H](OC(=O)N[C@H]3CC[C@H](NS(=O)(=O)C4CCCC4)CC3)C2)c(Cl)c1=O` [P-0228, (R)-1-(5-chloro-1-methyl-6-oxo-1,6-dihydropyridazin-4-yl)pyrrolidin-3-yl ((1r,4R)-4-(cyclopentanesulfonamido)cyclohexyl)carbamate], the IC50 (on human CD73; in test [1]) was 0.001 to 10 µM throughout.
On to `C[C@]1(O)CC[C@H](NC(=O)O[C@@H]2CCN(c3cn[nH]c(=O)c3Cl)C2)CC1` [P-0229, (R)-1-(5-chloro-6-oxo-1,6-dihydropyridazin-4-yl)pyrrolidin-3-yl ((1r,4R)-4-hydroxy-4-methylcyclohexyl)carbamate], for which the IC50 (on human CD73; in test [1]) was 0.001 to 10 µM each time.
Consider `CO[C@H]1CC[C@H](NC(=O)O[C@@H]2CCN(c3cn[nH]c(=O)c3Cl)C2)CC1` [P-0230, (R)-1-(5-chloro-6-oxo-1,6-dihydropyridazin-4-yl)pyrrolidin-3-yl ((1r,4R)-4-methoxycyclohexyl)carbamate], for which the IC50 (at human CD73; in test [1]) was 0.001 to 10 µM in each case.
As to `CO[C@H]1CC[C@@H](NC(=O)O[C@@H]2CCN(c3cn[nH]c(=O)c3Cl)C2)CC1` [P-0231, (R)-1-(5-chloro-6-oxo-1,6-dihydropyridazin-4-yl)pyrrolidin-3-yl ((1s,4S)-4-methoxycyclohexyl)carbamate], the IC50 (on human CD73; in test [1]) was 0.001 to 10 µM in each case.
As for `O=C(NCC1CCS(=O)(=O)CC1)O[C@@H]1CCN(c2cn[nH]c(=O)c2Cl)C1` [P-0232, (R)-1-(5-chloro-6-oxo-1,6-dihydropyridazin-4-yl)pyrrolidin-3-yl ((1,1-dioxidotetrahydro-2H-thiopyran-4-yl)methyl)carbamate], the IC50 (on human CD73; in test [1]) was 0.001 to 10 µM each time.

The values above are taken from patent US12509444B2, “Compounds and methods for CD73 modulation and indications therefor” (Plexxikon Inc., priority 2019, dated 2025).
